Series [1] relates to human platelet aggregation. In words: platelet aggregation on collagen-coated microcapillaries under flow (whole blood perfusion). The format is cell-based. The following applies: soluble peptide, 1500 seconds^−1, first 5 minutes. As to the method:
The microcapillaries of Vena8 Fluoro+™ biochip (400 μm width×100 μm depth×20 mm length, Cellix) were coated with 2.5 mg/ml insoluble horse type I collagen overnight at 4° C. and then blocked with 0.1% HSA for 1 hour at room temperature. Human peripheral whole blood, anticoagulated with P-PACK (a direct thrombin inhibitor, non-chelating agent) was labeled with 5 μM DiOC6 for 10 minutes before perfusion with the Cellix pump at 1500 seconds^−1 through the coated capillaries. The interaction of platelets with the matrix was viewed in real time under a fluorescence microscope and was saved for off-line analysis. The surface covered by aggregated platelets was analyzed frame by frame (24 frames/s) over the first 5 minutes and expressed as coverage %.

Series [2] relates to occlusive thrombus in apoE KO mice. Put plainly: acute thrombosis model, ligation of the left common carotid artery in atherosclerotic apoE KO mice. The format is in vivo. As to the method: Atherosclerotic mice were treated with P8F at 2.5, 5 or 10 mg/kg/day, with aspirin as a positive control and vehicle as a negative control.
The width of the columns is proportional to the number of mice included in each group (Aspirin=5, “2.5”=7, “5”=11, “10”=7, Vehicle=8). P<0.05 for all groups vs vehicle (Veh).
The P8F sequence was also used in vivo (subcutaneous administration of different doses: 2.5, 5 and 10 mg/kg/d) in atherosclerotic mice (apoE KO, 35 weeks of age, male, chow diet) subjected to the ligation of the left common carotid artery (a model of acute thrombosis). Due to advanced age, most of the mice had already developed an atherosclerotic lesion close to the site where the ligation was performed.

Series [3] in a line: stability, resistance to repeated freeze-thaw cycles (loss of activity). The following applies: number of cycles after which activity was diminished or abolished. The format is physicochemical. The method, then: (§1) The solubility, activity and stability (resistance to freezing/thawing) of the P8F and P8RI peptides were compared to previously used peptides comprising the membrane-proximal sequences of CD31.
Stability was determined by subjecting the peptides to repeated freeze-thaw cycles and determining the number of cycles after which ED 50 was increased and/or biological activity abolished.

Series [4] is described as follows: solubility comparison of peptides. The format is physicochemical. The conditions noted are these: for maximum soubility: in the minimal solvent.
Source text: as §1

The test system of series [5] is Jurkat T cells. In words: calcium mobilization test using Jurkat T cells after TCR stimulation. The format is cell-based. The method, then:
Jurkat T cells were preincubated with the fluo 3-AM calcium probe and stimulated by cross-linking the TCR with anti-CD3 antibodies and secondary antibody F(ab′)2 fragments.
Jurkat T cells (10×10^6/ml) were preincubated with the fluo 3-AM calcium probe and stimulated by cross-linking the TCR with anti-CD3 antibodies and secondary antibody F(ab′)2 fragments.
Activity was determined using the calcium mobilization test using Jurkat T cells, as described above.
Background: Calcium assays in cells follow changes in intracellular calcium, usually with a dye or a luminescent sensor.

Several values for one entry are separate records, joined by “and”; a condition that tells them apart may be missing. Equal values may be shown once. Non-standard residues stand in square brackets, D forms with d. Residues, ends and D or L forms follow the SMILES beside them. No end group written: not given here.

In the case of H-RVFLAPWK-OH [P8F], the “human platelet aggregation (surface coverage %)” value in series [1] is recorded as “inhibit human platelet aggregation in a dose dependent manner”. The “antithrombotic effect relative to reference drug” value in series [2] (5 mg/Kg/d s.c., vs aspirin 150 mg/kg/d s.c.) is recorded as “same extent of antithrombotic effect as the reference drug”. In addition, the occlusive thrombus found result in series [2] (5 mg/ml group (so in the source)) was “No occlusive thrombus”. In series [2] (P8F-treated mice vs vehicle), the “number of sections showing an occlusive thrombus, out of 1000 sections/sample” value is listed as “significantly lowered”. In addition, the “appearance of an occlusive thrombus” value in series [2] (s.c. 2.5, 5 and 10 mg/kg/d, all tested doses) was “effective in preventing the appearance of an occlusive thrombus”. Besides, the maximum freeze/thaw cycles in series [3] is 3 cycles. Moreover, in series [4], the minimal solvent entry is “water”, the solubility in water result is “soluble in water” and the maximum soubility amounted to 28.1 mg/mL. Besides, the “intracellular calcium mobilization (median fluorescence intensity of fluo-3AM probe)” value in series [5] (60 μg/ml peptide, Jurkat cells, TCR stimulation with anti-CD3 + F(ab')2) was “delayed and reduced”. Besides, in series [5] (Jurkat cells stimulated with antiCD3+Fab antibodies, read-out: ED 50 (minimal dose producing 50 percent of the maximum obtainable inhibition of intracellular calcium mobilization)), the EC50 stood at 25 µM.
For “SMRTSPRSSTLAVRVFLAPWKK [P22 mouse, reference compound]”, in series [4], the minimal solvent was 10% Acetonitrile, and 5% acetic acid; the maximum soubility was found to be 15.9 mg/mL.
`CC(C)C[C@@H](NC(=O)[C@@H](C)NC(=O)[C@H]1CCCN1C(=O)[C@@H](Cc1c[nH]c2ccccc12)NC(=O)[C@H](N)CCCCN)C(=O)N[C@H](Cc1ccccc1)C(=O)N[C@@H](C(=O)N[C@H](CCCNC(=N)N)C(=O)O)C(C)C` [P8RI, H-kwpalfvr-OH] (H-[dK][dW][dP][dA][dL][dF][dV][dR]-OH): in series [4], the minimal solvent entry is “water”, the solubility in water result was “soluble in water” and the maximum soubility was 30.5 mg/mL.
In the case of `CC(=O)Oc1ccccc1C(=O)O` [aspirin, reference compound], the occlusive thrombus found entry in series [2] (aspirin s.c. 150 mg/kg/d) was “No occlusive thrombus”.
VRVFLAPWKK [PepReg, reference compound]: in series [4], the minimal solvent was 10% Acetonitrile, and 5% acetic acid; the maximum soubility came out at 8.1 mg/mL.

Source of the values: US10815272B2, “CD31 peptides” (INSTITUT NATIONAL DE LA SANTE ET DE LA RECHERCHE MEDICALE …, priority 2012, dated 2020).
